From US12029728B2, “Small molecules with anti-protozoan activity” (New Mexico Tech University Research Park Corporation, priority 2018, dated 2024)
≈ marks a conversion by molar mass, not a printed value.

Legend:
[1] = system: T. cruzi epimastigotes; assay: T. cruzi epimastigote toxicity, visually assessed; assay type: cell-based, Trypanosoma cruzi; conditions: 48 hours at 30° C.
Protocol: A 1:20 working dilution of T. cruzi epimastigotes was prepared in LIT1029 medium from a saturated (˜4×10^6 cells/mL) culture. 100 μL of the 1:20 working dilution was plated, and the epimastigotes were incubated with a compound of the disclosure at varying concentrations for 48 hours at 30° C. Following T. cruzi epimastigote treatment with a compound of the disclosure, the toxicity of compounds towards T. cruzi epimastigotes was visually assessed.

[2] = system: ARPE cells; assay: MTT cell survival assay, ARPE; assay type: cell-based; conditions: Homo sapiens, 48 hours at 37° C., read-out: IC50 (GI50), cell survival
Protocol: (§1) The GI50 (IC50), the concentration at which 50% cell survival is seen upon treatment with a compound, was determined for Compound 2 in Jurkat, U87, HeLa, and ARPE cells. Cells were cultured in 96-well plates and incubated with 50 μM, 25 μM, 12.5 μM, 6 μM, 3 μM, 1.5 μM, or 0 μM of Compound 2 for 48 hours at 37° C. Following the incubation period, a 3-(4,5-dimethylthiazol-2-yl)-2,5-diphenyl tetrazolium bromide (MTT) assay was performed. In brief, a 10% volume of MTT was added to each well. Cells were incubated with MTT for 2 hours, at which time cell supernatant was removed and cells were taken into 100 μL DMSO. The absorbance of cell solutions was then read at 595 nm. A decrease in absorbance indicated a decrease in cell survival.

[3] = system: Jurkat cells; assay: MTT cell survival assay, Jurkat; assay type: cell-based; conditions: Homo sapiens, 48 hours at 37° C., read-out: IC50 (GI50), cell survival
Protocol: as §1

[4] = system: T. cruzi amastigotes and trypomastigotes; assay: Viability of tdTomato T. cruzi amastigotes and trypomastigotes, fluorescence; assay type: cell-based, Trypanosoma cruzi; conditions: 25 μM, 48 hours at 37° C.
Protocol: The viability of a mixture of T. cruzi amastigotes and trypomastigotes after exposure to 25 μM of the compounds of the disclosure was determined. 2×10^5 parasites/100 μL were plated in 96-well plates. Parasites expressing tdTomato were used to assess parasite viability using fluorescence measurements. Parasites were incubated with 25 μM of the compounds of the disclosure for 48 hours at 37° C. After the incubation period, the viability of amastigotes and trypomastigotes was assessed by measuring the fluorescence intensity at 510 nm-590 nm using a Tecan plate reader, where the presence of fluorescence indicated viable amastigotes/trypomastigotes.

[5] = system: L. major-infected PBMC cells; assay: L. major-infected PBMC cells, Hoechst micrographs; assay type: cell-based, Leishmania major; conditions: 40 μM
Protocol: Human peripheral blood mononuclear cells (PBMC) were plated onto polylysine-coated glass slides in 24-well plates and allowed to differentiate towards monocyte-derived macrophages (MDMs). Non-adherent cells were removed 48-hours post plating. Adherent monocytes were left to further differentiate for another 48 hours to MDMs. Following the completion of the differentiation period, MDMs were treated with vehicle control (DMSO), […], […], Compound 4, Compound 6, Compound 7, Compound 8, Compound 9, Compound 10, […]

[6] = system: L. major promastigotes; assay: L. major promastigote viability, propidium iodide flow cytometry; assay type: cell-based, Leishmania major; conditions: 50 μM, 48 hours at 24° C.
Protocol: 5×10^5 L. major promastigotes were treated with vehicle control (DMSO), […], 5 μM Compound 5, 50 μM Compound 2, 50 μM Compound 5, or […] for 48 hours at 24° C. Promastigote viability was then assessed via a propidium iodide flow cytometry assay. Propidium iodide is only taken up by dead cells, and the presence of fluorescence in a promastigote sample reflects compound efficacy.

[7] = system: T. cruzi-infected THP-1 cells; assay: T. cruzi-infected THP-1 derived macrophages, confocal microscopy; assay type: cell-based, Trypanosoma cruzi; conditions: 2 μM, 7 days
Protocol: Macrophages derived by differentiation of THP-1 cells with phorbol myristate acetate were plated in confocal dishes (about 5,000 cells per dish) and incubated overnight at 37° C. Dishes were incubated with T. cruzi amastigotes and trypomastigotes expressing tdTomato (˜2×10^5 cells) for 24 hours at 37° C. Uninfected plates served as controls. After the 24-hour T. cruzi incubation period, parasites were removed, and medium was re-plated with DMEM/F12 culture media with 2 μM Compound 2 (or left untreated as a control) for 7 days at 37° C. Following fixation of cells in 4% paraformaldehyde, tdTomato fluorescence (which is indicative of viable T. cruzi) in cells was then assessed via confocal microscopy.

[8] = system: T. cruzi epimastigotes; assay: MIC against T. cruzi epimastigotes, ATP assay; assay type: cell-based; conditions: Trypanosoma cruzi, 48 hours at 30° C.
Protocol: A 1:20 working dilution of T. cruzi epimastigotes was prepared in LIT1029 medium from a saturated (˜4×10^6 cells/mL) culture. 100 μL of the 1:20 working dilution was plated, and the epimastigotes were incubated with 50 μM, 25 μM, 12.5 μM, 6.25 μM, 3.13 μM, 1.5 μM, or 0 μM Compound 2 for 48 hours at 30° C. After incubation with Compound 2, T. cruzi viability was assessed via an ATP assay. […] An increase in relative light units (RLU) indicates the presence of ATP and viable cells. Phenylarsine oxide (PAO) was used as a control.

[9] = system: T. cruzi-infected VERO cells; assay: Treatment of T. cruzi-infected VERO cells, confocal microscopy; assay type: cell-based, Trypanosoma cruzi; conditions: 5 μM, 5 days
Protocol: 2×10^4 VERO cells were plated in individual confocal dishes and allowed to adhere for 16 hours at 37° C. […] The T. cruzi-infected dishes were incubated with ˜2×10^6 T. cruzi/mL for 24 hours at 37° C. to allow for internalization of parasites. T. cruzi parasites expressed tdTomato, which allowed for visualization of parasites within cells. After the 24-hour T. cruzi incubation period, extracellular parasites were removed from culture dishes. The cells were washed 3 times with cell culture media (10% fetal bovine serum; 1% penicillin/streptomycin). Designated plates were then incubated with 5 μM Compound 2 or 5 μM Compound 7 for 5 days at 37° C. Cells were then fixed in 2% paraformaldehyde and tdTomato fluorescence in cells was assessed via confocal microscopy.

[10] = system: HeLa cells; assay: MTT cell survival assay, HeLa; assay type: cell-based; conditions: Homo sapiens, 48 hours at 37° C., read-out: IC50 (GI50), cell survival
Protocol: as §1

## O=C(NO)C(c1ccccc1)c1c(-c2ccc3ccccc3c2)[nH]c2ccccc12 (stereo not shown) [Compound 2, N-hydroxy-2-(2-(naphthalen-2-yl)-1H-indol-3-yl)-2-phenylacetamide]
[1]
  Concentration at which T. cruzi epimastigote death is greater than or equal to ~99%: 6 µM
[2]
  IC50: 14.8 ± 1.13 µM
[3]
  IC50: 7.97 ± 1.06 µM
[4]
  toxicity to T. cruzi amastigotes and trypomastigotes: most toxic
[5]
  number of parasites/PBMC cell: decreases the number of parasites/PBMC cell
[6]
  efficacy on L. major promastigote survival: higher efficacy than MTF or the vehicle control
[7]
  intracellular proliferation of T. cruzi: prevented intracellular proliferation of T. cruzi
[8]
  MIC: ~6 µM (≈ 2.35 µg/mL)
[9]
  T. cruzi infection in VERO cells: eradication of T. cruzi infection
[10]
  IC50: 13.7 ± 0.75 µM
